Results published in US20110053773A1, “METHODS OF IMPROVING NUTRITIONAL VALUE OF PLANTS” (UNIVERSITY OF TENNESSEE RESEARCH FOUNDATION, priority 2009, published 2011).

Assays:
basil ‘Genovese’ = experiment: Yield, fresh weight of basil after insecticide, fungicide, PGRs and safeners (Example 4, Table 10); type: in vivo; conditions: DA-A, check 31.8
Procedure, shortened: (§1)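 Plants were harvested about 4 weeks post-treatment and pooled across replicates to analyse protein, amino acids, fiber, fatty acids and minerals (Na, Ca, P, Mg, K, Fe, Mn, Zn, Cu). Treatments were postemergence insecticide, fungicide, PGRs and safeners. Visual injury scored 0–100% (phytotoxicity, chlorosis, stunting).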

basil 'Genovese' [1] = experiment: Content analysis of basil: protein, minerals (Example 4, Tables 10-11); type: in vivo; conditions: 28 DA-A
Procedure, shortened: as §1

kale ‘Red Russian’ = experiment: Yield, fresh weight of kale after insecticide, fungicide and PGRs (Example 4, Table 12); type: in vivo; conditions: 28 DA-A, Untreated Check 106.9
Protocol: (§2) Greenhouse and laboratory studies were conducted to ascertain the tolerance and nutritional quality differences following postemergence applications of the insecticide chlorpyrifos, the fungicide chlorothalonil, the PGRs mepiquat-chloride and paclobutrazol, and the safeners napthalic anhydride and isoxadifen-ethyl on kale ‘Red Russian’ and basil ‘Genovese’. Visual injury was rated based on general phytotoxicity, chlorosis, and visual stunting and each measurement was based on a percent scale from 0 to 100 where 0 equals no visual response and 100 equals complete plant death. Kale and basil were both harvested approximately 4 weeks after treatments and plants were pooled over replicates for content analysis of crude protein, crude amino acid content, acid detergent fiber, neutral detergent fiber, total fatty acids, and/or key mineral content (including Na, Ca, P, Mg, K, Fe, Mn, Zn, and Cu). In addition, the amounts of key individual amino acids (aspartic acid, threonine, glutamic acid, proline, glycine, cysteine, valine, leucine, isoleucine, methionine, and lysine) and composite classifications of fatty acid (saturated fatty acids, monounsaturated fatty acids, polyunsaturated fatty acids) were also analyzed from these sub-samples for kale (Tables 10-14).

kale 'Red Russian' = experiment: Visual injury of kale after insecticide, fungicide, PGRs, safeners (Example 4)
Protocol: as §2

basil 'Genovese' [2] = experiment: Visual injury of basil after insecticide, fungicide, PGRs, safeners (Example 4)
Procedure, shortened: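 Read-out: percent visual injury, 0 (no visual response) to 100 (complete plant death), covering general phytotoxicity, chlorosis and stunting. Treatments were chlorpyrifos, chlorothalonil, mepiquat-chloride, paclobutrazol, napthalic anhydride, isoxadifen-ethyl, applied postemergence. Harvest at ~4 weeks.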

[3] = rates g ai/ha: chlropyrifos 1120, chlorothalonil 2630, paclobutrazol 3.23, mepiquat-chloride 12.3, Isoxadifen 8, Napthalic anhydride 264, + NIS 0.25 % v/v
[4] = rates g ai/ha: chlroprifos 3370, chlorothalonil 7900, paclobutrazol 9.7, mepiquat-chloride 37, Isoxadifen 16, Napthalic anhydride 527, + NIS 0.25 % v/v
[5] = 7 DA-A, rates g ai/ha: chlropyrifos 1120, chlorothalonil 2630, paclobutrazol 3.23, mepiquat-chloride 12.3, + NIS 0.25 % v/v
[6] = 7 DA-A, rates g ai/ha: chlropyrifos 3370, chlorothalonil 7900, paclobutrazol 9.7, mepiquat-chloride 37, + NIS 0.25 % v/v
[7] = 14 DA-A, rates g ai/ha: chlropyrifos 1120, chlorothalonil 2630, paclobutrazol 3.23, mepiquat-chloride 12.3, + NIS 0.25 % v/v
[8] = 14 DA-A, rates g ai/ha: chlropyrifos 3370, chlorothalonil 7900, paclobutrazol 9.7, mepiquat-chloride 37, + NIS 0.25 % v/v
[9] = 28 DA-A, rates g ai/ha: chlropyrifos 1120, chlorothalonil 2630, paclobutrazol 3.23, mepiquat-chloride 12.3, + NIS 0.25 % v/v
[10] = 28 DA-A, rates g ai/ha: chlropyrifos 3370, chlorothalonil 7900, paclobutrazol 9.7, mepiquat-chloride 37, + NIS 0.25 % v/v
[11] = 7 DA-A, rates g ai/ha: chlropyrifos 1120, chlorothalonil 2630, paclobutrazol 3.23, mepiquat-chloride 12.3, Isoxadifen 8, Napthalic anhydride 264, + NIS 0.25 % v/v
[12] = 7 DA-A, rates g ai/ha: chlropyrifos 3370, chlorothalonil 7900, paclobutrazol 9.7, mepiquat-chloride 37, Isoxadifen 16, Napthalic anhydride 527, + NIS 0.25 % v/v
[13] = 14 DA-A, rates g ai/ha: chlropyrifos 1120, chlorothalonil 2630, paclobutrazol 3.23, mepiquat-chloride 12.3, Isoxadifen 8, Napthalic anhydride 264, + NIS 0.25 % v/v

N#Cc1c(Cl)c(Cl)c(Cl)c(C#N)c1Cl [chlorothalonil]
Yield Fresh weight (basil ‘Genovese’; [3]): 27.5 grams | Yield Fresh weight (basil ‘Genovese’; rates g ai/ha: chlropyrifos 3370, chlorothalonil 7900, paclobutrazol 9.7, mepiquat-chloride 37, Isoxadifen 16, Napthalic anhydride 527, + NIS 0.25 % v/v): 25.9 grams | ADF, Percent Increase Over the Untreated Check (on a % dry matter basis) (basil 'Genovese' [1]; [4]): 1 % check | Calcium, Percent Increase Over the Untreated Check (on a % dry matter basis) (basil 'Genovese' [1]; [4]): −15 % check | Copper, Percent Increase Over the Untreated Check (on a % dry matter basis) (basil 'Genovese' [1]; [4]): −17 % check | Iron, Percent Increase Over the Untreated Check (on a % dry matter basis) (basil 'Genovese' [1]; [4]): 25 % check | Magnesium, Percent Increase Over the Untreated Check (on a % dry matter basis) (basil 'Genovese' [1]; [4]): −6 % check | Manganese, Percent Increase Over the Untreated Check (on a % dry matter basis) (basil 'Genovese' [1]; [4]): −8 % check | NDF, Percent Increase Over the Untreated Check (on a % dry matter basis) (basil 'Genovese' [1]; [4]): 12 % check | Phosphorous, Percent Increase Over the Untreated Check (on a % dry matter basis) (basil 'Genovese' [1]; [4]): 0 % check | Potassium, Percent Increase Over the Untreated Check (on a % dry matter basis) (basil 'Genovese' [1]; [4]): 7 % check | Protein, Percent Increase Over the Untreated Check (on a % dry matter basis) (basil 'Genovese' [1]; [4]): 3 % check | Sodium, Percent Increase Over the Untreated Check (on a % dry matter basis) (basil 'Genovese' [1]; [4]): 50 % check | Soluble protein, Percent Increase Over the Untreated Check (on a % dry matter basis) (basil 'Genovese' [1]; [4]): 42 % check | Zinc, Percent Increase Over the Untreated Check (on a % dry matter basis) (basil 'Genovese' [1]; [4]): −6 % check | ADF, Percent Increase Over the Untreated Check (on a % dry matter basis) (basil 'Genovese' [1]; [3]): 1 % check | Calcium, Percent Increase Over the Untreated Check (on a % dry matter basis) (basil 'Genovese' [1]; [3]): 0 % check | Copper, Percent Increase Over the Untreated Check (on a % dry matter basis) (basil 'Genovese' [1]; [3]): −17 % check | Iron, Percent Increase Over the Untreated Check (on a % dry matter basis) (basil 'Genovese' [1]; [3]): 37 % check | Magnesium, Percent Increase Over the Untreated Check (on a % dry matter basis) (basil 'Genovese' [1]; [3]): 3 % check | Manganese, Percent Increase Over the Untreated Check (on a % dry matter basis) (basil 'Genovese' [1]; [3]): 43 % check | NDF, Percent Increase Over the Untreated Check (on a % dry matter basis) (basil 'Genovese' [1]; [3]): 6 % check | Phosphorous, Percent Increase Over the Untreated Check (on a % dry matter basis) (basil 'Genovese' [1]; [3]): 9 % check | Potassium, Percent Increase Over the Untreated Check (on a % dry matter basis) (basil 'Genovese' [1]; [3]): 4 % check | Protein, Percent Increase Over the Untreated Check (on a % dry matter basis) (basil 'Genovese' [1]; [3]): 3 % check | Sodium, Percent Increase Over the Untreated Check (on a % dry matter basis) (basil 'Genovese' [1]; [3]): 8 % check | Soluble protein, Percent Increase Over the Untreated Check (on a % dry matter basis) (basil 'Genovese' [1]; [3]): 223 % check | Zinc, Percent Increase Over the Untreated Check (on a % dry matter basis) (basil 'Genovese' [1]; [3]): 38 % check | Yield Fresh weight (kale ‘Red Russian’; rates g ai/ha: chlropyrifos 1120, chlorothalonil 2630, paclobutrazol 3.23, mepiquat-chloride 12.3, + NIS 0.25 % v/v): 102.5 grams | Yield Fresh weight (kale ‘Red Russian’; rates g ai/ha: chlropyrifos 3370, chlorothalonil 7900, paclobutrazol 9.7, mepiquat-chloride 37, + NIS 0.25 % v/v): 107.5 grams | Phytotoxicity Chlorosis (kale 'Red Russian'; [5]): 0% | Phytotoxicity General (kale 'Red Russian'; [5]): 15% | Phytotoxicity Stunting (kale 'Red Russian'; [5]): 0% | Phytotoxicity Chlorosis (kale 'Red Russian'; [6]): 0% | Phytotoxicity General (kale 'Red Russian'; [6]): 9% | Phytotoxicity Stunting (kale 'Red Russian'; [6]): 1% | Phytotoxicity Chlorosis (kale 'Red Russian'; [7]): 10% | Phytotoxicity General (kale 'Red Russian'; [7]): 0% | Phytotoxicity Stunting (kale 'Red Russian'; [7]): 5% | Phytotoxicity Chlorosis (kale 'Red Russian'; [8]): 6% | Phytotoxicity General (kale 'Red Russian'; [8]): 1% | Phytotoxicity Stunting (kale 'Red Russian'; [8]): 5% | Phytotoxicity Chlorosis (kale 'Red Russian'; [9]): 3% | Phytotoxicity General (kale 'Red Russian'; [9]): 5% | Phytotoxicity Stunting (kale 'Red Russian'; [9]): 6% | Phytotoxicity Chlorosis (kale 'Red Russian'; [10]): 0% | Phytotoxicity General (kale 'Red Russian'; [10]): 3% | Phytotoxicity Stunting (kale 'Red Russian'; [10]): 8% | Phytotoxicity Chlorosis (basil 'Genovese' [2]; [11]): 5% | Phytotoxicity General (basil 'Genovese' [2]; [11]): 5% | Phytotoxicity Stunting (basil 'Genovese' [2]; [11]): 5% | Phytotoxicity Chlorosis (basil 'Genovese' [2]; [12]): 15% | Phytotoxicity General (basil 'Genovese' [2]; [12]): 3% | Phytotoxicity Stunting (basil 'Genovese' [2]; [12]): 5% | Phytotoxicity Chlorosis (basil 'Genovese' [2]; [13]): 5% | Phytotoxicity General (basil 'Genovese' [2]; [13]): 0% | Phytotoxicity Stunting (basil 'Genovese' [2]; [13]): 8% | Phytotoxicity Chlorosis (basil 'Genovese' [2]; 14 DA-A, rates g ai/ha: chlropyrifos 3370, chlorothalonil 7900, paclobutrazol 9.7, mepiquat-chloride 37, Isoxadifen 16, Napthalic anhydride 527, + NIS 0.25 % v/v): 5%
